Experimental data from PubChem BioAssay AID248 (DTP/NCI, 2004).
Several values for one entry are separate records, joined by “and”; a condition that tells them apart may be missing. Equal values may be shown once. Inconclusive results and toxic doses are left out.

Test system: L1210 leukemia ip in BDF1 mice, survival T/C
Test: NCI In Vivo Anticancer Drug Screen. Data for tumor model L1210 Leukemia (intraperitoneal) in B6D2F1 (BDF1) mice
Conditions: endpoint: mean survival time, higher = longer survival
How it was run: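 Value reflects the ratio of survival in compound-treated mice to survival in vehicle-treated controls, with both groups carrying the same transplanted tumor.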

[1] = dose: 25.0 mg/kg/injection, schedule: Q01DX001 (ip), vehicle: saline
[2] = dose: 100.0 mg/kg/injection, schedule: Q01DX001 (ip), vehicle: saline
[3] = dose: 100.0 mg/kg/injection, schedule: Q01DX001 (ip), vehicle: Klucel (hydroxypropylcellulose) (HPC)
[4] = dose: 200.0 mg/kg/injection, schedule: Q01DX001 (ip), vehicle: Klucel (hydroxypropylcellulose) (HPC)
[5] = dose: 400.0 mg/kg/injection, schedule: Q01DX001 (ip), vehicle: Klucel (hydroxypropylcellulose) (HPC)
[6] = dose: 25.0 mg/kg/injection, schedule: Q01DX009 (ip), vehicle: saline
[7] = dose: 25.0 mg/kg/injection, schedule: Q04DX003 (ip), vehicle: saline
[8] = dose: 50.0 mg/kg/injection, schedule: Q01DX009 (ip), vehicle: saline
[9] = dose: 50.0 mg/kg/injection, schedule: Q04DX003 (ip), vehicle: saline
[10] = dose: 100.0 mg/kg/injection, schedule: Q01DX009 (ip), vehicle: saline
[11] = dose: 100.0 mg/kg/injection, schedule: Q04DX003 (ip), vehicle: saline
[12] = dose: 200.0 mg/kg/injection, schedule: Q04DX003 (ip), vehicle: saline
[13] = dose: 400.0 mg/kg/injection, schedule: Q04DX003 (ip), vehicle: saline

With `OCC1OC(n2nnc3c(=S)nc[nH]c32)C(O)C1O` (centres undefined) the T/C (dose: 3.3 mg/kg/injection, schedule: Q01DX009 (ip), vehicle: saline) was 101 % of control, the T/C (dose: 5.0 mg/kg/injection, schedule: Q01DX009 (ip), vehicle: saline) was 95 % of control and the T/C (dose: 7.5 mg/kg/injection, schedule: Q01DX009 (ip), vehicle: saline) was 94 % of control. The T/C (dose: 11.25 mg/kg/injection, schedule: Q01DX009 (ip), vehicle: saline) was 101 % of control, the T/C (dose: 15.0 mg/kg/injection, schedule: Q01DX001 (ip), vehicle: saline) was 96 % of control and the T/C (dose: 18.0 mg/kg/injection, schedule: Q01DX009 (ip), vehicle: saline) was 106 % of control. The T/C [1] was 98 % of control and 100 % of control, the T/C (dose: 27.0 mg/kg/injection, schedule: Q01DX009 (ip), vehicle: saline) was 101 % of control and the T/C (dose: 38.0 mg/kg/injection, schedule: Q01DX001 (ip), vehicle: saline) was 94 % of control. For the same compound, the T/C (dose: 75.0 mg/kg/injection, schedule: Q01DX001 (ip), vehicle: saline) was 102 % of control, the T/C [2] was 94 % of control and 98 % of control and 106 % of control and the T/C (dose: 200.0 mg/kg/injection, schedule: Q01DX001 (ip), vehicle: saline) was 110 % of control.

`O=[As](O)(CC(O)c1ccccc1)c1ccc(Cl)cc1` (centres undefined) was tested, and the T/C (dose: 6.25 mg/kg/injection, schedule: Q01DX001 (ip), vehicle: saline with Tween-80) was 100 % of control, the T/C (dose: 12.5 mg/kg/injection, schedule: Q01DX001 (ip), vehicle: saline with Tween-80) was 109 % of control and the T/C (dose: 25.0 mg/kg/injection, schedule: Q01DX001 (ip), vehicle: saline with Tween-80) was 105 % of control and 116 % of control.

With `C1CCC2C(C1)CCCC2CC1CCCC2CCCCC21` (centres undefined) the T/C (dose: 75.0 mg/kg/injection, schedule: Q01DX001 (ip), vehicle: acetone) was 100 % of control, the T/C (dose: 150.0 mg/kg/injection, schedule: Q01DX001 (ip), vehicle: acetone) was 106 % of control and the T/C (dose: 300.0 mg/kg/injection, schedule: Q01DX001 (ip), vehicle: acetone) was 100 % of control.

For `COC(=O)C(Cc1ccc(N(CCCl)CCCl)cc1)N=NNc1[nH]ncc1C(N)=O` (centres undefined), the T/C (dose: 19.0 mg/kg/injection, schedule: Q01DX001 (ip), vehicle: other) was 106 % of control, the T/C (dose: 38.0 mg/kg/injection, schedule: Q01DX001 (ip), vehicle: other) was 124 % of control and the T/C (dose: 75.0 mg/kg/injection, schedule: Q01DX001 (ip), vehicle: other) was 100 % of control. The T/C (dose: 150.0 mg/kg/injection, schedule: Q01DX001 (ip), vehicle: other) was 155 % of control and the T/C (dose: 300.0 mg/kg/injection, schedule: Q01DX001 (ip), vehicle: other) was 117 % of control.

For `CC(C)=NN=C(N)N`, the T/C (dose: 15.0 mg/kg/injection, schedule: Q01DX Z (ip), vehicle: carboxymethylcellulose (CMC)) was 100 % of control, the T/C (dose: 15.0 mg/kg/injection, schedule: Q01DX Z (ip), vehicle: saline) was 107 % of control and the T/C (dose: 30.0 mg/kg/injection, schedule: Q01DX Z (ip), vehicle: carboxymethylcellulose (CMC)) was 101 % of control. For the same compound, the T/C (dose: 30.0 mg/kg/injection, schedule: Q01DX Z (ip), vehicle: saline) was 101 % of control, the T/C (dose: 60.0 mg/kg/injection, schedule: Q01DX Z (ip), vehicle: carboxymethylcellulose (CMC)) was 96 % of control and 106 % of control and the T/C (dose: 60.0 mg/kg/injection, schedule: Q01DX Z (ip), vehicle: saline) was 95 % of control. The T/C (dose: 60.0 mg/kg/injection, schedule: Q01DX Z (oral), vehicle: saline) was 92 % of control, the T/C (dose: 120.0 mg/kg/injection, schedule: Q01DX Z (ip), vehicle: carboxymethylcellulose (CMC)) was 93 % of control and 95 % of control and the T/C (dose: 120.0 mg/kg/injection, schedule: Q01DX Z (ip), vehicle: saline) was 95 % of control. For the same compound, the T/C (dose: 120.0 mg/kg/injection, schedule: Q01DX Z (oral), vehicle: carboxymethylcellulose (CMC)) was 106 % of control, the T/C (dose: 120.0 mg/kg/injection, schedule: Q01DX Z (oral), vehicle: saline) was 109 % of control and the T/C (dose: 240.0 mg/kg/injection, schedule: Q01DX Z (ip), vehicle: carboxymethylcellulose (CMC)) was 101 % of control. The T/C (dose: 240.0 mg/kg/injection, schedule: Q01DX Z (ip), vehicle: saline) was 88 % of control, the T/C (dose: 240.0 mg/kg/injection, schedule: Q01DX Z (oral), vehicle: carboxymethylcellulose (CMC)) was 102 % of control and the T/C (dose: 240.0 mg/kg/injection, schedule: Q01DX Z (oral), vehicle: saline) was 97 % of control. For the same compound, the T/C (dose: 480.0 mg/kg/injection, schedule: Q01DX Z (oral), vehicle: carboxymethylcellulose (CMC)) was 116 % of control and the T/C (dose: 480.0 mg/kg/injection, schedule: Q01DX Z (oral), vehicle: saline) was 92 % of control.

In the case of `CC1(C)N=C(N)N=C(N)N1c1ccc(CC(C(=O)Nc2ccc(S(=O)(=O)F)cc2)c2cccc3ccccc23)cc1` (centres undefined), the T/C [3] is reported as 95 % of control, the T/C [4] is reported as 89 % of control and the T/C [5] is reported as 89 % of control.

`CCCCCCN` was tested, and the T/C [1] was 97 % of control, the T/C [6] was 93 % of control and 105 % of control and the T/C (dose: 25.0 mg/kg/injection, schedule: Q04DX002 (ip), vehicle: saline) was 97 % of control and 100 % of control. The T/C [7] was 103 % of control, the T/C (dose: 50.0 mg/kg/injection, schedule: Q01DX001 (ip), vehicle: saline) was 111 % of control and the T/C [8] was 101 % of control and 104 % of control. The T/C (dose: 50.0 mg/kg/injection, schedule: Q04DX002 (ip), vehicle: saline) was 97 % of control and 103 % of control, the T/C [9] was 114 % of control and the T/C [2] was 101 % of control. The T/C [10] was 102 % of control and the T/C [11] was 110 % of control.

With `NCCB(O)O` the T/C [11] was 95 % of control, the T/C [12] was 93 % of control and the T/C [13] was 98 % of control.

For `C[Si](C)(C#CC1(O)CCCCC1)CCl`, the T/C (dose: 100.0 mg/kg/injection, schedule: Q04DX003 (ip), vehicle: Klucel (hydroxypropylcellulose) (HPC)) was 107 % of control, the T/C (dose: 200.0 mg/kg/injection, schedule: Q04DX003 (ip), vehicle: Klucel (hydroxypropylcellulose) (HPC)) was 106 % of control and the T/C (dose: 400.0 mg/kg/injection, schedule: Q04DX003 (ip), vehicle: Klucel (hydroxypropylcellulose) (HPC)) was 103 % of control.

`CC(C)=CC1CC(C)C2(CCC3(C)CC4C(C(=O)CC4(C)O)/C(C=O)=C\CC32)O1` (centres undefined) was tested, and the T/C (dose: 5.0 mg/kg/injection, schedule: Q01DX001 (ip), vehicle: saline) was 103 % of control, the T/C (dose: 10.0 mg/kg/injection, schedule: Q01DX001 (ip), vehicle: saline) was 97 % of control and the T/C (dose: 20.0 mg/kg/injection, schedule: Q01DX001 (ip), vehicle: saline) was 97 % of control. The T/C (dose: 40.0 mg/kg/injection, schedule: Q01DX001 (ip), vehicle: saline) was 97 % of control and the T/C (dose: 80.0 mg/kg/injection, schedule: Q01DX001 (ip), vehicle: saline) was 109 % of control.

In the case of `CC(=O)Oc1c2ccccc2c2c3c(cccc13)C(=O)O2`, the T/C [3] is reported as 95 % of control, the T/C [4] is reported as 95 % of control and the T/C [5] is reported as 95 % of control.

With `C/C=C/C(=O)Nc1ccc(Cl)c(Cl)c1` the T/C (dose: 100.0 mg/kg/injection, schedule: Q04DX002 (ip), vehicle: Klucel (hydroxypropylcellulose) (HPC)) was 94 % of control, the T/C (dose: 200.0 mg/kg/injection, schedule: Q04DX002 (ip), vehicle: Klucel (hydroxypropylcellulose) (HPC)) was 90 % of control and the T/C (dose: 400.0 mg/kg/injection, schedule: Q04DX002 (ip), vehicle: Klucel (hydroxypropylcellulose) (HPC)) was 90 % of control.

In the case of `CN1C(=O)OC(C)(C)C1=O`, the T/C [6] is reported as 98 % of control, the T/C [7] is reported as 93 % of control and the T/C [8] is reported as 95 % of control. For the same compound, the T/C [9] was 109 % of control, the T/C [10] was 102 % of control and the T/C [11] was 98 % of control. The T/C (dose: 200.0 mg/kg/injection, schedule: Q01DX009 (ip), vehicle: saline) was 96 % of control, the T/C [12] was 109 % of control and the T/C (dose: 400.0 mg/kg/injection, schedule: Q01DX009 (ip), vehicle: saline) was 106 % of control. For the same compound, the T/C [13] was 98 % of control.

For `CCCCCCCCCC(=O)Nc1ccccc1CC`, the T/C (dose: 100.0 mg/kg/injection, schedule: Q04DX002 (ip), vehicle: other) was 116 % of control, the T/C (dose: 200.0 mg/kg/injection, schedule: Q04DX002 (ip), vehicle: other) was 105 % of control and the T/C (dose: 400.0 mg/kg/injection, schedule: Q04DX002 (ip), vehicle: other) was 101 % of control.
